Assay: recombinant barcode read abundance after kanamycin selection (control-corrected) (log10(CPM+1)); higher = more efficient recombination; sequences stand for … in AGTGCAGAGAAAATCGGCCAGTTTTCTCTGCCTGCAGTCCGCATGCCGT…AGATTTATGCAGCGGACTGCCTTTCTCCCAAAGTGATAAACCGGACAGTATCATGGACCGGTTTTCCCGGTAATCCGTATTTGCAAGGTTGGTTTCACT; site = the 11-nt target
In short: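 Reported as log10(CPM+1), each value stands for recombination efficiency. That efficiency is the averaged, control-corrected counts per million of barcodes found at recombinant junctions. Cells from a pooled E. coli library pairing targets with IS621 bridge RNA target-binding loops were plated twice on chloramphenicol/ampicillin LB agar (control) and twice on chloramphenicol/ampicillin/kanamycin with 0.1 mM IPTG.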
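Also: IS621 recombinase and bridge RNA in Escherichia coli cells.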

TCGTGTTCTTGGGTTCTAACCTGTTGCTA (site TCGTGTTCTTA)
recombinant barcode read abundance (log10): 0.0576

TCGTTCGCTTGGGTTCTAACCTGTTGCCT (site TCCTTCACTAG)
recombinant barcode read abundance (log10): 0.0905

TCGTTCGCTTGGGTTCTAACCTGTTGCCT (site TCGTTCGCTAG)
recombinant barcode read abundance (log10): 0.21

TCTAAGTCTTGGGTTCTAACCTGTTGCCC (site TCTAAGTCTAG)
recombinant barcode read abundance (log10): 0.132

TCTAAGTCTTGGGTTCTAACCTGTTGCCC (site TCTAAGTCTCG)
recombinant barcode read abundance (log10): 0.0902

TCTAAGTCTTGGGTTCTAACCTGTTGCCC (site TCTAAGTCTGG)
recombinant barcode read abundance (log10): 0.194

TCTAAGTCTTGGGTTCTAACCTGTTGCCC (site TCTAAGTCTTG)
recombinant barcode read abundance (log10): 0.00905

TCTAAGTCTTGGGTTCTAACCTGTTGCCT (site TCTAAGTCTAG)
recombinant barcode read abundance (log10): 0.134

TCTAAGTCTTGGGTTCTAACCTGTTGCCT (site TCTAAGTCTCG)
recombinant barcode read abundance (log10): 0.132

TCTAAGTCTTGGGTTCTAACCTGTTGCCT (site TCTAAGTCTGG)
recombinant barcode read abundance (log10): 0.172

TCTAAGTCTTGGGTTCTAACCTGTTGCCT (site TCTAAGTCTTG)
recombinant barcode read abundance (log10): 0.281

TCTAGATCTTGGGTTCTAACCTGTTGCCT (site TCTAGAACTAG)
recombinant barcode read abundance (log10): 0.0897

TCTAGATCTTGGGTTCTAACCTGTTGCCT (site TCTAGACCTAG)
recombinant barcode read abundance (log10): 0.0764

TCTAGATCTTGGGTTCTAACCTGTTGCCT (site TCTAGAGCTAG)
recombinant barcode read abundance (log10): 0.135

TCTAGATCTTGGGTTCTAACCTGTTGCCT (site TCTAGATCTAG)
recombinant barcode read abundance (log10): 0.0616

TCTATCCCTTGGGTTCTAACCTGTTGCCT (site TCAATCCCTAG)
recombinant barcode read abundance (log10): 0.113

TCTATCCCTTGGGTTCTAACCTGTTGCCT (site TCCATCCCTAG)
recombinant barcode read abundance (log10): 0.105

TCTATCCCTTGGGTTCTAACCTGTTGCCT (site TCGATCCCTAG)
recombinant barcode read abundance (log10): 0.0408

TCTATCCCTTGGGTTCTAACCTGTTGCCT (site TCTATCCCTAG)
recombinant barcode read abundance (log10): 0.203

TCTATGACTTGGGTTCTAACCTGTTGCCT (site TCTATGACTAG)
recombinant barcode read abundance (log10): 0.0099

TCTATGACTTGGGTTCTAACCTGTTGCCT (site TCTATGTCTAG)
recombinant barcode read abundance (log10): 0.187

TCTCAGCCTTGGGTTCTAACCTGTTGCCT (site TCTCAGCCTAG)
recombinant barcode read abundance (log10): 0.453

TCTCAGCCTTGGGTTCTAACCTGTTGCCT (site TCTCCGCCTAG)
recombinant barcode read abundance (log10): 0.0825

TCTCAGCCTTGGGTTCTAACCTGTTGCCT (site TCTCGGCCTAG)
recombinant barcode read abundance (log10): 0.291

TCTCAGCCTTGGGTTCTAACCTGTTGCCT (site TCTCTGCCTAG)
recombinant barcode read abundance (log10): 0.0307

TCTGAAACTTGGGTTCTAACCTGTTGCCT (site TCCGAAACTAT)
recombinant barcode read abundance (log10): 0.12

TCTGAAACTTGGGTTCTAACCTGTTGCCT (site TCTGAAACTAG)
recombinant barcode read abundance (log10): 0.413

TCTGGGCCTTGGGTTCTAACCTGTTGCTT (site TCTGGGCCTAA)
recombinant barcode read abundance (log10): 0.0924

TCTGGGCCTTGGGTTCTAACCTGTTGCTT (site TCTGGGCCTTA)
recombinant barcode read abundance (log10): 0.525

TCTGGGGCTTGGGTTCTAACCTGTTGCAG (site TCTGGGGCTCA)
recombinant barcode read abundance (log10): 0.686

TCTGGGGCTTGGGTTCTAACCTGTTGCAG (site TCTGGGGCTCC)
recombinant barcode read abundance (log10): 0.189

TCTGGGGCTTGGGTTCTAACCTGTTGCAG (site TCTGGGGCTCG)
recombinant barcode read abundance (log10): 0.159

TCTGGGGCTTGGGTTCTAACCTGTTGCAG (site TCTGGGGCTCT)
recombinant barcode read abundance (log10): 2.15

TCTGTCTCTTGGGTTCTAACCTGTTGCCT (site TCTGTCTCTAG)
recombinant barcode read abundance (log10): 2.03

TCTGTCTCTTGGGTTCTAACCTGTTGCCT (site TGTGTCTCTAC)
recombinant barcode read abundance (log10): 0.0569

TCTTGGACTTGGGTTCTAACCTGTTGCTA (site TCTTGGACTAA)
recombinant barcode read abundance (log10): 0.214

TCTTGGACTTGGGTTCTAACCTGTTGCTA (site TCTTGGACTCA)
recombinant barcode read abundance (log10): 0.0354

TCTTGGACTTGGGTTCTAACCTGTTGCTA (site TCTTGGACTGA)
recombinant barcode read abundance (log10): 0.0809

TCTTGGACTTGGGTTCTAACCTGTTGCTA (site TCTTGGACTTA)
recombinant barcode read abundance (log10): 0.0613

TGAAAGTCTTGGGTTCTAACCTGTTGCCT (site TGAAAGTCTAG)
recombinant barcode read abundance (log10): 0.727

TGAAAGTCTTGGGTTCTAACCTGTTGCCT (site TGAACGTCTAG)
recombinant barcode read abundance (log10): 0.0267

TGAAAGTCTTGGGTTCTAACCTGTTGCCT (site TGAAGGTCTAG)
recombinant barcode read abundance (log10): 0.15

TGAAAGTCTTGGGTTCTAACCTGTTGCCT (site TGAATGTCTAG)
recombinant barcode read abundance (log10): 0.0411

TGAACTCCTTGGGTTCTAACCTGTTGCCT (site GTAACTCCTAG)
recombinant barcode read abundance (log10): 0.118

TGAACTCCTTGGGTTCTAACCTGTTGCCT (site TGAACTCCTAG)
recombinant barcode read abundance (log10): 0.122

TGACATTCTTGGGTTCTAACCTGTTGCTT (site GGACATTCTAA)
recombinant barcode read abundance (log10): 0.139

TGACATTCTTGGGTTCTAACCTGTTGCTT (site TGACATTCTAA)
recombinant barcode read abundance (log10): 0.13

TGAGACACTTGGGTTCTAACCTGTTGCTG (site TGACACACTCA)
recombinant barcode read abundance (log10): 0.0729

TGAGACACTTGGGTTCTAACCTGTTGCTG (site TGAGACACTCA)
recombinant barcode read abundance (log10): 2.68

TGAGACTCTTGGGTTCTAACCTGTTGCCT (site TGAGACTCTAG)
recombinant barcode read abundance (log10): 2.2

TGAGACTCTTGGGTTCTAACCTGTTGCCT (site TGCGACTCTAG)
recombinant barcode read abundance (log10): 0.0734

TGAGACTCTTGGGTTCTAACCTGTTGCCT (site TGGGACTCTAG)
recombinant barcode read abundance (log10): 0.198

TGAGACTCTTGGGTTCTAACCTGTTGCCT (site TGTGACTCTAG)
recombinant barcode read abundance (log10): 0.463

TGAGCTACTTGGGTTCTAACCTGTTGCAC (site TGAGCTACTGT)
recombinant barcode read abundance (log10): 1.16

TGAGCTACTTGGGTTCTAACCTGTTGCAC (site TGTGCGACTGT)
recombinant barcode read abundance (log10): 0.0102

TGAGGATCTTGGGTTCTAACCTGTTGCCT (site TGAGGATCTAG)
recombinant barcode read abundance (log10): 0.99

TGAGGATCTTGGGTTCTAACCTGTTGCCT (site TGAGGCACTAG)
recombinant barcode read abundance (log10): 0.503

TGAGGGACTTGGGTTCTAACCTGTTGCCT (site CTCATAGCTTC)
recombinant barcode read abundance (log10): 0.0546

TGAGGGACTTGGGTTCTAACCTGTTGCCT (site TGAGGGACTAG)
recombinant barcode read abundance (log10): 1.9

TGAGTCCCTTGGGTTCTAACCTGTTGCTT (site TGAGTACCTAA)
recombinant barcode read abundance (log10): 0.0411

TGAGTCCCTTGGGTTCTAACCTGTTGCTT (site TGAGTCCCTAA)
recombinant barcode read abundance (log10): 1.67

TGAGTCCCTTGGGTTCTAACCTGTTGCTT (site TGAGTGCCTAA)
recombinant barcode read abundance (log10): 0.0566

TGAGTCCCTTGGGTTCTAACCTGTTGCTT (site TGAGTTCCTAA)
recombinant barcode read abundance (log10): 0.125

TGAGTGCCTTGGGTTCTAACCTGTTGCTT (site TGAGTACCTAA)
recombinant barcode read abundance (log10): 0.682

TGAGTGCCTTGGGTTCTAACCTGTTGCTT (site TGAGTCCCTAA)
recombinant barcode read abundance (log10): 0.116

TGAGTGCCTTGGGTTCTAACCTGTTGCTT (site TGAGTGCCTAA)
recombinant barcode read abundance (log10): 1.1

TGAGTGCCTTGGGTTCTAACCTGTTGCTT (site TGAGTTCCTAA)
recombinant barcode read abundance (log10): 0.0622

TGATCCTCTTGGGTTCTAACCTGTTGCTA (site AGGTCCTCTTA)
recombinant barcode read abundance (log10): 0.0555

TGATCCTCTTGGGTTCTAACCTGTTGCTA (site TGATCCTCTTA)
recombinant barcode read abundance (log10): 0.513

TGCACTCCTTGGGTTCTAACCTGTTGCCT (site TACAGTCCTAG)
recombinant barcode read abundance (log10): 0.0234

TGCACTCCTTGGGTTCTAACCTGTTGCCT (site TGCACTCCTAG)
recombinant barcode read abundance (log10): 0.0424

TGCATAGCTTGGGTTCTAACCTGTTGCAG (site CTGCAGTCTTG)
recombinant barcode read abundance (log10): 0.00928

TGCATAGCTTGGGTTCTAACCTGTTGCAG (site TGCATAGCTCT)
recombinant barcode read abundance (log10): 1.49

TGCCAGACTTGGGTTCTAACCTGTTGCGT (site AGCCACACTAC)
recombinant barcode read abundance (log10): 0.0104

TGCCAGACTTGGGTTCTAACCTGTTGCGT (site TGCCAGACTAC)
recombinant barcode read abundance (log10): 1.74

TGCCCCTCTTGGGTTCTAACCTGTTGCCG (site ACAAGGCCTAT)
recombinant barcode read abundance (log10): 0.0768

TGCCCCTCTTGGGTTCTAACCTGTTGCCG (site TGCCCCTCTCG)
recombinant barcode read abundance (log10): 1.46

TGCCCTCCTTGGGTTCTAACCTGTTGCTT (site TCCTCTCCTAA)
recombinant barcode read abundance (log10): 0.0862

TGCCCTCCTTGGGTTCTAACCTGTTGCTT (site TGCCCTCCTAA)
recombinant barcode read abundance (log10): 0.0976

TGCCTCTCTTGGGTTCTAACCTGTTGCTA (site GTTAGACCTAG)
recombinant barcode read abundance (log10): 0.0422

TGCCTCTCTTGGGTTCTAACCTGTTGCTA (site TGCCTCTCTTA)
recombinant barcode read abundance (log10): 0.279

TGCGATACTTGGGTTCTAACCTGTTGCTT (site ACACGAGCTCT)
recombinant barcode read abundance (log10): 0.0799

TGCGATACTTGGGTTCTAACCTGTTGCTT (site TGCGATACTAA)
recombinant barcode read abundance (log10): 0.223

TGCGGGTCTTGGGTTCTAACCTGTTGCCT (site GAGCTTGCTTC)
recombinant barcode read abundance (log10): 0.273

TGCGGGTCTTGGGTTCTAACCTGTTGCCT (site TGCGGGTCTAG)
recombinant barcode read abundance (log10): 0.702

TGCGTTCCTTGGGTTCTAACCTGTTGCGT (site TGCGTCACTAC)
recombinant barcode read abundance (log10): 0.0759
